From ChEMBL document CHEMBL1152457, “Antimicrobial drug resistance of Salmonella enterica serovar typhi in asia and molecular mechanism of reduced susceptibility to the fluoroquinolones” (2007)
In brackets after ≈: the same amount, converted by molar mass. Activity calls are given as the source filed them. No cut-off for these calls is given here.

Tests used:
[1] = tested on: Salmonella enterica subsp. enterica; assay: Antimicrobial activity against multidrug-resistant Salmonella enterica Serovar Typhi isolate HTD 798 harboring DNA gyrase A S83F mutation by disk diffusion method; assay type: functional, Salmonella enterica subsp. enterica serovar Typhi
[2] = tested on: Salmonella enterica subsp. enterica; assay: Antimicrobial activity against Salmonella enterica Serovar Typhi isolate CT145 harboring DNA gyrase A S83F mutation by disk diffusion method in presence of plasmid mediated quinolone-resistant gene qnrA and qnrS; assay type: functional, Salmonella enterica subsp. enterica serovar Typhi
[3] = tested on: Salmonella enterica subsp. enterica; assay: Antimicrobial activity against multidrug-resistant Salmonella enterica Serovar Typhi isolate AG8 harboring DNA gyrase A S83F mutation by disk diffusion method; assay type: functional, Salmonella enterica subsp. enterica serovar Typhi
[4] = tested on: Salmonella enterica subsp. enterica; assay: Antimicrobial activity against multidrug-resistant Salmonella enterica Serovar Typhi isolate BL 3769 harboring DNA gyrase A S83F mutation by disk diffusion method in presence of plasmid mediated quinolone-resistant gene qnrA and qnrS; assay type: functional, Salmonella enterica subsp. enterica serovar Typhi
[5] = tested on: Salmonella enterica subsp. enterica; assay: Antimicrobial activity against multidrug-resistant Salmonella enterica Serovar Typhi isolate ipt 32 harboring DNA gyrase A S83F mutation by disk diffusion method; assay type: functional, Salmonella enterica subsp. enterica serovar Typhi
[6] = tested on: Salmonella enterica subsp. enterica; assay: Antimicrobial activity against multidrug-resistant Salmonella enterica Serovar Typhi isolate nar 50 harboring DNA gyrase A S83F mutation by disk diffusion method; assay type: functional, Salmonella enterica subsp. enterica serovar Typhi
[7] = tested on: Salmonella enterica subsp. enterica; assay: Antimicrobial activity against multidrug-resistant Salmonella enterica Serovar Typhi isolate DT18 harboring DNA gyrase A S83F and D87G mutation by disk diffusion method; assay type: functional, Salmonella enterica subsp. enterica serovar Typhi
[8] = tested on: Salmonella enterica subsp. enterica; assay: Antimicrobial activity against Salmonella enterica Serovar Typhi isolate CT144 harboring DNA gyrase A D87G mutation by disk diffusion method in presence of plasmid mediated quinolone-resistant gene qnrA and qnrS; assay type: functional, Salmonella enterica subsp. enterica serovar Typhi
[9] = tested on: Salmonella enterica subsp. enterica; assay: Antimicrobial activity against multidrug-resistant Salmonella enterica Serovar Typhi isolate AG6 harboring DNA gyrase A S83F mutation by disk diffusion method; assay type: functional, Salmonella enterica subsp. enterica serovar Typhi
[10] = tested on: Salmonella enterica subsp. enterica; assay: Antimicrobial activity against multidrug-resistant Salmonella enterica Serovar Typhi isolate CT29 harboring DNA gyrase A S83F mutation by disk diffusion method in presence of plasmid mediated quinolone-resistant gene qnrA and qnrS; assay type: functional, Salmonella enterica subsp. enterica serovar Typhi
[11] = tested on: Salmonella enterica subsp. enterica; assay: Antimicrobial activity against multidrug-resistant Salmonella enterica Serovar Typhi isolate nar 45 harboring DNA gyrase A S83F mutation by disk diffusion method; assay type: functional, Salmonella enterica subsp. enterica serovar Typhi
[12] = tested on: Salmonella enterica subsp. enterica; assay: Antimicrobial activity against multidrug-resistant Salmonella enterica Serovar Typhi isolate DT3 harboring DNA gyrase A S83F mutation by disk diffusion method in presence of plasmid mediated quinolone-resistant gene qnrA and qnrS; assay type: functional, Salmonella enterica subsp. enterica serovar Typhi
[13] = tested on: Salmonella enterica subsp. enterica; assay: Antimicrobial activity against Salmonella enterica Serovar Typhi isolate AG182 harboring DNA gyrase A S83F mutation by disk diffusion method; assay type: functional, Salmonella enterica subsp. enterica serovar Typhi
[14] = tested on: Salmonella enterica subsp. enterica; assay: Antimicrobial activity against Salmonella enterica Serovar Typhi isolate E86 harboring DNA gyrase A S83F mutation by disk diffusion method in presence of plasmid mediated quinolone-resistant gene qnrA and qnrS; assay type: functional, Salmonella enterica subsp. enterica serovar Typhi
[15] = tested on: Salmonella enterica subsp. enterica; assay: Antimicrobial activity against multidrug-resistant Salmonella enterica Serovar Typhi isolate DT40 harboring DNA gyrase A S83F mutation by disk diffusion method; assay type: functional, Salmonella enterica subsp. enterica serovar Typhi
[16] = tested on: Salmonella enterica subsp. enterica; assay: Antimicrobial activity against multidrug-resistant Salmonella enterica Serovar Typhi isolate DT18 harboring DNA gyrase A S83F and D87G mutation assessed as decrease in viable count at 16 times MIC after 4 hrs by time-kill analysis; assay type: functional, organism-based
[17] = tested on: Salmonella enterica subsp. enterica; assay: Antimicrobial activity against Salmonella enterica Serovar Typhi isolate CT144 harboring DNA gyrase A D87G mutation assessed as decrease in bacterial population at 4 times MIC after 30 mins by time-kill analysis; assay type: functional, organism-based
[18] = tested on: Salmonella enterica subsp. enterica; assay: Antimicrobial activity against Salmonella enterica Serovar Typhi isolate CT144 harboring DNA gyrase A D87G mutation assessed as complete cell killing at 4 times MIC after 6 hrs by time-kill analysis; assay type: functional, organism-based
[19] = tested on: Salmonella enterica subsp. enterica; assay: Antimicrobial activity against multidrug-resistant Salmonella enterica Serovar Typhi isolate HTD 798 harboring DNA gyrase A S83F mutation assessed as decrease in bacterial population at 4 times MIC after 30 mins by time-kill analysis; assay type: functional, organism-based
[20] = tested on: Salmonella enterica subsp. enterica; assay: Antimicrobial activity against multidrug-resistant Salmonella enterica Serovar Typhi isolate DT18 harboring DNA gyrase A S83F and D87G mutation assessed as decrease in viable count at 8 times MIC after 4 hrs by time-kill analysis; assay type: functional, organism-based
[21] = tested on: Salmonella enterica subsp. enterica; assay: Antimicrobial activity against Salmonella enterica Serovar Typhi isolate CT76 harboring wild type DNA gyrase A assessed as complete cell killing at 4 times MIC after 6 hrs by time-kill analysis; assay type: functional, organism-based
[22] = tested on: Salmonella enterica subsp. enterica; assay: Antimicrobial activity against multidrug-resistant Salmonella enterica Serovar Typhi isolate HTD 798 harboring DNA gyrase A S83F mutation assessed as complete cell killing at 4 times MIC after 6 hrs by time-kill analysis; assay type: functional, organism-based
[23] = tested on: Salmonella enterica subsp. enterica; assay: Antimicrobial activity against Salmonella enterica Serovar Typhi isolate CT76 harboring wild type DNA gyrase A assessed as decrease in bacterial population at 4 times MIC after 30 mins by time-kill analysis; assay type: functional, organism-based
[24] = tested on: Salmonella enterica subsp. enterica; assay: Antimicrobial activity against Salmonella enterica Serovar Typhi isolate AG3 harboring DNA gyrase A S83F mutation by disk diffusion method; assay type: functional, Salmonella enterica subsp. enterica serovar Typhi
[25] = tested on: Salmonella enterica subsp. enterica; assay: Antimicrobial activity against multidrug-resistant Salmonella enterica Serovar Typhi isolate DT18 harboring DNA gyrase A S83F and D87G mutation assessed as decrease in viable count at 4 times MIC after 4 hrs by time-kill analysis; assay type: functional, organism-based
[26] = tested on: Salmonella enterica subsp. enterica; assay: Antimicrobial activity against Salmonella enterica Serovar Typhi isolate CT144 harboring DNA gyrase A D87G mutation assessed as complete cell killing at 4 times MIC after 4 hrs by time-kill analysis; assay type: functional, organism-based
[27] = tested on: Salmonella enterica subsp. enterica; assay: Antimicrobial activity against Salmonella enterica Serovar Typhi isolate CT144 harboring DNA gyrase A D87G mutation assessed as decrease in viable count at 4 times MIC after 4 hrs by time-kill analysis; assay type: functional, organism-based
[28] = tested on: Salmonella enterica subsp. enterica; assay: Antimicrobial activity against multidrug-resistant Salmonella enterica Serovar Typhi isolate HTD 798 harboring DNA gyrase A S83F mutation assessed as decrease in viable count at 4 times MIC after 4 hrs by time-kill analysis; assay type: functional, organism-based
[29] = tested on: Salmonella enterica subsp. enterica; assay: Antimicrobial activity against multidrug-resistant Salmonella enterica Serovar Typhi isolate HTD 798 harboring DNA gyrase A S83F mutation assessed as complete cell killing at 4 times MIC after 4 hrs by time-kill analysis; assay type: functional, organism-based
[30] = tested on: Salmonella enterica subsp. enterica; assay: Antimicrobial activity against Salmonella enterica Serovar Typhi isolate CT76 harboring wild type DNA gyrase A by time-kill analysis; assay type: functional, organism-based

SMILES | MIC [1] [µg/mL] | MIC [2] [µg/mL] | MIC [3] [µg/mL] | MIC [4] [µg/mL] | MIC [5] [µg/mL] | MIC [6] [µg/mL] | MIC [7] [µg/mL] | MIC [8] [µg/mL] | MIC [9] [µg/mL] | MIC [10] [µg/mL] | MIC [11] [µg/mL] | MIC [12] [µg/mL] | MIC [13] [µg/mL] | MIC [14] [µg/mL] | MIC [15] [µg/mL] | MIC [24] [µg/mL] | further results
O=C(O)c1cn(C2CC2)c2cc(N3CCNCC3)c(F)cc2c1=O [CIPROFLOXACIN] | 0.38 (≈ 1.15 µM) | 0.38 | 0.5 (≈ 1.51 µM) | 0.25 | 0.5 (≈ 1.51 µM) | 0.5 (≈ 1.51 µM) | 0.5 (≈ 1.51 µM) | 0.25 | 0.5 (≈ 1.51 µM) | 0.5 | 0.5 (≈ 1.51 µM) | 0.5 | 0.38 (≈ 1.15 µM) | 0.25 | 0.38 (≈ 1.15 µM) | – | –
COc1c(N2CCNC(C)C2)c(F)cc2c(=O)c(C(=O)O)cn(C3CC3)c12 (configuration not stated) [GATIFLOXACIN] | 0.13 (≈ 0.346 µM) | 0.094 | 0.19 (≈ 0.506 µM) | 0.19 | 0.125 (≈ 0.333 µM) | 0.094 (≈ 0.25 µM) | 0.25 (≈ 0.666 µM) | 0.094 | 0.19 (≈ 0.506 µM) | 0.094 | 0.125 (≈ 0.333 µM) | 0.094 | 0.13 (≈ 0.346 µM) | 0.19 | 0.125 (≈ 0.333 µM) | 0.25 (≈ 0.666 µM) | Activity [16]: Active; Activity [17]: Active; Activity [18]: Active; Activity [19]: Active; Activity [20]: Active; Activity [21]: Active; Activity [22]: Active; Activity [23]: Active
CCn1cc(C(=O)O)c(=O)c2ccc(C)nc21 [NALIDIXIC ACID] | > 256 | 128 | > 256 | > 256 | 256 (≈ 1100 µM) | 256 (≈ 1100 µM) | > 256 | > 256 | > 256 | 256 | 256 (≈ 1100 µM) | > 256 | > 256 | > 256 | > 256 | > 256 | –
CC1COc2c(N3CCN(C)CC3)c(F)cc3c(=O)c(C(=O)O)cn1c23 (configuration not stated) [OFLOXACIN] | 1 (≈ 2.77 µM) | 0.5 | 1.5 (≈ 4.15 µM) | 0.5 | 1 (≈ 2.77 µM) | 1 (≈ 2.77 µM) | 2 (≈ 5.53 µM) | 1 | 1 (≈ 2.77 µM) | 1 | 0.5 (≈ 1.38 µM) | 2 | 1 (≈ 2.77 µM) | 0.5 | 0.5 (≈ 1.38 µM) | 2 (≈ 5.53 µM) | Activity [25]: inactive; Activity [26]: inactive; Activity [27]: Active; Activity [28]: Active; Activity [29]: inactive; Activity [30]: Active
